Experimental data: ChEMBL document CHEMBL5390256, “Sticklac-Derived Natural Compounds Inhibiting RNase H Activity of HIV-1 Reverse Transcriptase” (J Nat Prod, 2023)
Calls of active or inactive are those of the source. The calls are words filed in the database; no cut-off is given here.

Columns and labels:
[1] = biological target: T1, Human immunodeficiency virus type 1 reverse transcriptase (Human immunodeficiency virus 1, UniProt Q72547); assay: Inhibition of HIV-1 RNase H activity
[2] = biological target: T1, Human immunodeficiency virus type 1 reverse transcriptase; assay: Inhibition of HIV-1 RNase H using 5'-GAUCUGAGCCUGGGAGCU-3'-FAM RNA/BHQ-5'-AGCTCCCAGGCTCAGATC-3' DNA as substrate measured after 60 mins by FRET analysis
[3] = biological target: Human immunodeficiency virus type 1 reverse transcriptase (Human immunodeficiency virus 1) (UniProt Q72547); assay: Inhibition of HIV-1 RNase H using 5'-GAUCUGAGCCUGGGAGCU-3'-FAM RNA/BHQ-5'-AGCTCCCAGGCTCAGATC-3' DNA as substrate at 50 uM measured after 60 mins by FRET analysis
[4] = system: Human immunodeficiency virus 1; assay: Antiviral activity against HIV-1 NL4-3 infected in human R5-MaRBLE reporter cells assessed as inhibition of viral replication measured after 7 days by Dual-Glo luciferase reporter assay; assay type: functional, organism-based
[5] = Cytotoxicity activity against human R5-MaRBLE reporter cells assessed as effect on Renilla luciferase activity measured after 7 days by Dual-Glo luciferase reporter assay; assay type: toxicity, cell-based; conditions: time 7 day
[6] = biological target: DNA (cytosine-5)-methyltransferase 1 (Homo sapiens, UniProt P26358); assay: Competitive inhibition of DNMT1 (unknown origin)
Sequence of DNA (cytosine-5)-methyltransferase 1 (P26358 whole entry): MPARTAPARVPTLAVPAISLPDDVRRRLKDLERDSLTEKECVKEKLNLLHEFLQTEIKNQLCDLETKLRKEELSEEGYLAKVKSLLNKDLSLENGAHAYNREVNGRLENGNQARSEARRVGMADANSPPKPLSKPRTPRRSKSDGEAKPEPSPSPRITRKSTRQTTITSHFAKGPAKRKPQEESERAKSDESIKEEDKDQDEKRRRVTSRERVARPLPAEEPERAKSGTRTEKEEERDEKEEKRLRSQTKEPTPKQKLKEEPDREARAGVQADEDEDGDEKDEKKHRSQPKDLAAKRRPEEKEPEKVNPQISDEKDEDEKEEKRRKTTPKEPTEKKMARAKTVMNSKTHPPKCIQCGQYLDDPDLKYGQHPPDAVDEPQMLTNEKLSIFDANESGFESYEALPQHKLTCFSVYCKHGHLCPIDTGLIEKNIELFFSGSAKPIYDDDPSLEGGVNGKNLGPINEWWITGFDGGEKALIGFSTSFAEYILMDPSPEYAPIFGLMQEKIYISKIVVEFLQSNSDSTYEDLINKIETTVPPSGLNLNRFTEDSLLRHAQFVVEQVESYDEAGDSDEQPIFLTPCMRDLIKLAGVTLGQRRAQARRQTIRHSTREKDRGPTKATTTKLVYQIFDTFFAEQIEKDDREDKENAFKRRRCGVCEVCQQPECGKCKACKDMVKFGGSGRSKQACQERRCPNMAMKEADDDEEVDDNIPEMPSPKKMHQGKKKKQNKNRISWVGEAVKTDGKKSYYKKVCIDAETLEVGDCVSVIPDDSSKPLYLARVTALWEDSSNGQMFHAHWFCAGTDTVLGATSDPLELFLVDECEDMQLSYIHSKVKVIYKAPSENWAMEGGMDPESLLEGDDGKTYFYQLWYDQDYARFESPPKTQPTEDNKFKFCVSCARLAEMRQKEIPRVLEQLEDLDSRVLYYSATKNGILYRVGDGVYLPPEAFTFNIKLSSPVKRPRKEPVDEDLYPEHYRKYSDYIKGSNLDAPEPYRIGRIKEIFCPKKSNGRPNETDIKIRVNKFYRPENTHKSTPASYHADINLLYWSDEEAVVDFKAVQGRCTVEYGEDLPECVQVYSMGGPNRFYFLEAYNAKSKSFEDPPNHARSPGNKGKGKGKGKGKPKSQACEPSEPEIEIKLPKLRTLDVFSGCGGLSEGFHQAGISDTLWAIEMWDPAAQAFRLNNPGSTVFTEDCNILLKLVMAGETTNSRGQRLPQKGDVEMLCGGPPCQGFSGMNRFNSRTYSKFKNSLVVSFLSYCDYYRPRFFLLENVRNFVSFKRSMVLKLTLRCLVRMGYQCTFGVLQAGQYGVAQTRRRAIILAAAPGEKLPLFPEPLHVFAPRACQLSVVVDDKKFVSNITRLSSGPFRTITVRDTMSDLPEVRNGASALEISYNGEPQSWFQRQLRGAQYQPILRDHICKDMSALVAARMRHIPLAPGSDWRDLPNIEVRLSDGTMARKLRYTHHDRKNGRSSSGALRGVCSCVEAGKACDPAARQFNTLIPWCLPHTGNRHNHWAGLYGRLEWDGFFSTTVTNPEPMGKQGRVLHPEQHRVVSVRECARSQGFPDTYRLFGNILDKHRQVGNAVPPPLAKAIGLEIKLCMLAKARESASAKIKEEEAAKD

Row | IC50 [1] [µM] | IC50 [2] [µM] | inhibition [3] | EC50 ([4]; Human immunodeficiency virus 1, NL4-3, R5-MaRBLE, 168 h, read-out: EC50) [µM] | Ki [6] [µM] | EC50 ([4]; r5-marble) | Compound | CC50 at 168 h [5] [µM]
1 | 2 |  |  |  |  |  | O=C(O)c1cc(O)c2c(c1)[C@@H]([C@@H]1c3cc(C(=O)O)cc(O)c3C(=O)c3c(O[C@@H]4O[C@H](CO)[C@@H](O)[C@H](O)[C@H]4O)cccc31)c1cccc(O[C@H]3O[C@@H](CO)[C@H](O)[C@@H](O)[C@@H]3O)c1C2=O | 
2 |  | 8.1 | Active | 19.2 |  |  | N[C@@H](Cc1ccc(O)c(-c2c(O)c(O)c3c(c2O)C(=O)c2c(cc(O)c(C(=O)O)c2C(=O)O)C3=O)c1)C(=O)O | 43.9
3 |  | 44 | Active |  |  |  | NCCc1ccc(O)c(-c2c(O)c(O)c3c(c2O)C(=O)c2c(cc(O)c(C(=O)O)c2C(=O)O)C3=O)c1 | 
4 |  | 64 | Active |  | 0.3 | Not Active | CC(=O)NCCc1ccc(O)c(-c2c(O)c(O)c3c(c2O)C(=O)c2c(cc(O)c(C(=O)O)c2C(=O)O)C3=O)c1 [LACCACID ACID A] | 39.5
5 | 2 |  |  |  |  |  | O=C(O)c1cc(O)c2c(c1)[C@@H]([C@H]1c3cc(C(=O)O)cc(O)c3C(=O)c3c(O[C@H]4O[C@@H](CO)[C@H](O)[C@@H](O)[C@@H]4O)cccc31)c1cccc(O[C@@H]3O[C@H](CO)[C@@H](O)[C@H](O)[C@H]3O)c1C2=O | 
